This note sets out measurements from ChEMBL document CHEMBL5303709, “ECBD screening data for assay EOS300041” (2022).

Structures are written as SMILES. Peptide text beside a SMILES is read from it. * marks the point of attachment. Cbz = O=C(OCc1ccccc1)*

The target of this assay is Replicase polyprotein 1ab (Severe acute respiratory syndrome coronavirus 2) (UniProt P0DTD1). Put plainly: Inhibition of SARS-CoV-2 3CL-Pro proteolytic cleavage of a dual-labeled substrate by FRET. Type of assay: functional. Also on record: assay stage.

In the case of `Cn1sc(=O)n(Cc2ccccc2)c1=O`, the IC50 relative is less than 0.02 µM.

As for `COc1ncc(-c2ccc3nccc(-c4ccnnc4)c3c2)cc1NS(=O)(=O)c1ccc(F)cc1F`, the IC50 relative was greater than 20 µM.

`Oc1cc2c(cc1C(c1ccc(C(F)(F)F)cc1)N1CCOCC1)OCO2` (configuration not stated): the IC50 relative is 0.545 µM.

Take `S=C=Nc1cccc(NC(=S)NCCCCNC(=S)Nc2cccc(N=C=S)c2)c1`: the IC50 relative is greater than 20 µM.

Turning to `C[C@H]1COC2=C1C(=O)C(=O)c1c2ccc2c1CCCC2(C)C`, the IC50 relative is greater than 20 µM.

Turning to `Sc1nnnn1-c1ccccc1`, the IC50 relative is 2.36 µM.

`O=C(O)C1=CC(=C(c2ccc(O)c(C(=O)O)c2)c2ccc(O)c(C(=O)O)c2)C=CC1=O`: the IC50 relative is greater than 20 µM.

Take `COc1ccc2[nH]c([S+]([O-])Cc3ncc(C)c(OC)c3C)nc2c1` (configuration not stated): the IC50 relative was greater than 20 µM.

Consider `Nc1nc(S)c2ncn(C3OC(CO)C(O)C3O)c2n1` (configuration not stated), for which the IC50 relative is 1.07 µM.

Consider `CC(C)C[C@@H](C=O)NC(=O)[C@H](CC(C)C)NC(=O)[C@H](CC(C)C)NC(=O)OCc1ccccc1` (Cbz-Leu-Leu-Leu-aldehyde), for which the IC50 relative is greater than 20 µM.

As for `CC(C)(C)OC(=O)NCCc1nnc(S(=O)(=O)Cc2ccc(Cl)cc2Cl)o1`, the IC50 relative was 4.22 µM.

Turning to `COc1ccc2[nH]c3c(S)ncnc3c2c1`, the IC50 relative is greater than 20 µM.

Take `CCOC(=O)c1c(N)sc(-c2ccccc2)c1C`: the IC50 relative was 3.28 µM.

For the compound `O=C(/C=C/c1ccc2ccccc2n1)c1ccncc1`, the IC50 relative is greater than 20 µM.

As for `Nc1ccc(O)c2ncccc12`, the IC50 relative was 2.05 µM.

For `O=C(c1cccs1)c1no[n+]([O-])c1C(=O)c1cccs1`, the IC50 relative was 11 µM.

`NC(Cc1cc(O)c(O)cc1O)C(=O)O` (racemic): the IC50 relative is greater than 20 µM.

With `Sc1nnc(Nc2ccccc2)s1`, the IC50 relative was 0.39 µM.

As to `O=C(O)c1c(Cl)c(Cl)c(Cl)c(Cl)c1-c1c2cc(I)c(=O)c(I)c-2oc2c(I)c(O)c(I)cc12`, the IC50 relative was greater than 20 µM.

In the case of `S=C=NCc1ccccc1`, the IC50 relative was greater than 20 µM.

On to `O=C(CCl)c1ccccc1`, for which the IC50 relative was 0.19 µM.

On to `O=C(c1ccc(Cl)cc1)c1cc([N+](=O)[O-])ccc1N1CCOCC1`, for which the IC50 relative is greater than 20 µM.

`CCN1CCN(C(c2ccc(C(F)(F)F)cc2)c2ccc3cccnc3c2O)CC1` (configuration not stated): the IC50 relative was 0.152 µM.

For the compound `O=c1c2ccccc2sn1-c1ccccc1`, the IC50 relative was less than 0.02 µM.

With `Cc1cc(-c2ccc(/N=N/c3ccc4c(S(=O)(=O)O)cc(S(=O)(=O)O)c(N)c4c3O)c(C)c2)ccc1/N=N/c1ccc2c(S(=O)(=O)O)cc(S(=O)(=O)O)c(N)c2c1O`, the IC50 relative was greater than 20 µM.

As to `COc1ccnc(C[S+]([O-])c2nc3cc(OC(F)F)ccc3[nH]2)c1OC` (configuration not stated), the IC50 relative was greater than 20 µM.

For the compound `[O-][n+]1ccccc1S`, the IC50 relative is 0.0487 µM.

For `O=C1C(Cl)=C(Cl)C(=O)C(Cl)=C1Cl`, the IC50 relative is less than 0.02 µM.

Turning to `COC(=O)CC[C@H](NC(=O)[C@H](CC(=O)OC)NC(=O)OCc1ccccc1)C(=O)N[C@H](C(=O)N[C@@H](CC(=O)OC)C(=O)CF)C(C)C`, the IC50 relative is less than 0.02 µM.

Turning to `Cc1ccc(C)c(-n2sc3cc(F)ccc3c2=O)c1`, the IC50 relative is less than 0.02 µM.

Turning to `Cc1ccc(S(=O)(=O)N[C@@H](Cc2ccccc2)C(=O)CCl)cc1`, the IC50 relative is 1.37 µM.

`COc1ccc2[nH]c(S)nc2c1`: the IC50 relative is greater than 20 µM.

On to `O=c1c(O)cccc2cc(O)c(O)c(O)c12`, for which the IC50 relative was 6.98 µM.

Take `CCOc1cc(C(Nc2cc(C)ccn2)c2ccc3cccnc3c2O)ccc1OC` (configuration not stated): the IC50 relative is 0.269 µM.

For `O=[N+]([O-])c1ccc(Sc2cccc[n+]2[O-])c2nonc12`, the IC50 relative was less than 0.02 µM.

As to `Cc1ccc(-n2sc3ccccc3c2=O)cc1`, the IC50 relative is less than 0.02 µM.

As to `CC(Cc1ccc(O)c(O)c1)C(C)Cc1ccc(O)c(O)c1` (configuration not stated), the IC50 relative was greater than 20 µM.

Consider `CN1CCN(C(=O)c2ccc(-c3ccc4c(C=O)c(O)ccc4c3)s2)CC1`, for which the IC50 relative is 1.94 µM.

`Cc1cc(-c2ccc(/C=C3/S/C(=N\c4ccc(Cl)c(C(=O)O)c4)NC3=O)o2)c([N+](=O)[O-])cc1C`: the IC50 relative is greater than 20 µM.

Consider `Sc1nnc(-c2ccccc2Cl)o1`, for which the IC50 relative is greater than 20 µM.

For `CCCCn1c(NC(=O)c2cccs2)c(C#N)c2nc3ccccc3nc21`, the IC50 relative is greater than 20 µM.

Turning to `O=C(Nc1ccccc1)Nc1ccc(-c2ccc(C(=O)[C@@H]3CCC[C@H]3C(=O)O)cc2)cc1`, the IC50 relative is greater than 20 µM.

With `CN(C)S(=O)(=O)c1cccc(-n2sc3ccccc3c2=O)c1`, the IC50 relative is less than 0.02 µM.

On to `O=C(O)[C@@H](S)[C@@H](S)C(=O)O`, for which the IC50 relative is 6.74 µM.

With `O=C(NC(=S)N1CCCc2ccccc21)c1ccccc1`, the IC50 relative was greater than 20 µM.

For the compound `Cc1c(-c2ccc(N3CCc4cccc(C(=O)Nc5nc6ccccc6s5)c4C3)nc2C(=O)O)cnn1CC12CC3CC(CC(C3)C1)C2`, the IC50 relative is greater than 20 µM.

In the case of `O=c1cc(-c2ccccc2)oc2cc(O)c(O)c(O)c12`, the IC50 relative was greater than 20 µM.

Take `CCN(CC)S(=O)(=O)c1cccc(-n2sc3ccccc3c2=O)c1`: the IC50 relative is less than 0.02 µM.

On to `CC1=CC(=O)c2ccccc2C1=O`, for which the IC50 relative is greater than 20 µM.

For `Cc1ccc(-n2sc(=O)n(Cc3ccc(F)cc3)c2=O)cc1`, the IC50 relative is less than 0.02 µM.

For the compound `CCN(CC)C(=S)S`, the IC50 relative was greater than 20 µM.

In the case of `COc1cc(N(C)C)cc(CN(C)CCc2ccc([N+](=O)[O-])cc2)c1O`, the IC50 relative was 6.09 µM.
